Experimental findings from patent publication US12357631B2 (priority 2018, dated 2025) are described below.

This assay deals with PB2 (Influenza A virus, UniProt P03428). The experiment in a line: biochemical. The class given is binding.
Sequence of PB2 (P03428 whole entry, looked up): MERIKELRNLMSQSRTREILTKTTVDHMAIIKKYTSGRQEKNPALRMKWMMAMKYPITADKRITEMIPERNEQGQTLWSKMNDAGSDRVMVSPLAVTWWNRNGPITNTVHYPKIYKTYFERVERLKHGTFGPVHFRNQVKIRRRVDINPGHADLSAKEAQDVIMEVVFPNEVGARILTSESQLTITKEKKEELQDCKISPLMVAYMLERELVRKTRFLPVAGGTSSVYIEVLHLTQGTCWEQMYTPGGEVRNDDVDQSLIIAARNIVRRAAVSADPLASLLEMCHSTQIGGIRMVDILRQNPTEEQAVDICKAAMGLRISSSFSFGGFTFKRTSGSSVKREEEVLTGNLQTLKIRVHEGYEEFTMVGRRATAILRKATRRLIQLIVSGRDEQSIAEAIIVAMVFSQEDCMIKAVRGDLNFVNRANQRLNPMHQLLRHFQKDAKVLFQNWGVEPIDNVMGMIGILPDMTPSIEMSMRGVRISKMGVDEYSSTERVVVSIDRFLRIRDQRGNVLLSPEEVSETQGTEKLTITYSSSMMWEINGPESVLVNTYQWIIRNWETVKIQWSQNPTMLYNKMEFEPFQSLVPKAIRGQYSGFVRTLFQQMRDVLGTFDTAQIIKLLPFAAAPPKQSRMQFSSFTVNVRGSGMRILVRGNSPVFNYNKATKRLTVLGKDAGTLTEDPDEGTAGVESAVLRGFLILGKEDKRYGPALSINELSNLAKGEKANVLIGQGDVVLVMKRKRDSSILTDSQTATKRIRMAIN
In the case of `CCOC1CCCCC1OCCCCCN(C)C(=O)N[C@H]1CCC[C@@H](Nc2nc(-c3c[nH]c4ncc(F)cc34)ncc2F)C1` (stereo partly drawn) [Compound A245], the EC50 (as a rule, the midpoint of the concentration-response curve) is above 100 µM.
As to `CCC(CC)OCCOCCCCCN(C)C(=O)N[C@H]1CCC[C@@H](Nc2nc(-c3c[nH]c4ncc(F)cc34)ncc2F)C1` [Compound A246], the EC50 was above 100 µM.
Compound `CCOCCOCCCCCN(C(=O)N[C@@H]1CCC[C@H](Nc2nc(-c3c[nH]c4ncc(Cl)cc34)ncc2F)C1)C(C)C` [Compound A248] showed an EC50 above 100 µM.
Consider `CCOCCOCCCCCN(C(=O)N[C@@H]1CCC[C@H](Nc2nc(-c3c[nH]c4ncc(Cl)cc34)ncc2Cl)C1)C(C)C` [Compound A249], for which the EC50 is above 100 µM.
As to `CCOCCOCCCCCN(C(=O)N[C@H]1CCC[C@@H](Nc2nc(-c3c[nH]c4ncc(F)cc34)ncc2Cl)C1)C(C)C` [Compound A250], the EC50 is above 100 µM.
As for `CCOCCOCCOCCNC(=O)N[C@@H]1CCC[C@H](Nc2nc(-c3c[nH]c4ncc(F)cc34)ncc2F)C1` [Compound A264], the EC50 was above 100 µM.
`O=C(COCCOCCOCCO)N[C@@H]1CCC[C@H](Nc2nc(-c3c[nH]c4ncc(F)cc34)ncc2F)C1` [Compound A265] had an EC50 of 5 to 25 µM.
For `CCOCCOCCOCCS(=O)(=O)N[C@@H]1CCC[C@H](Nc2nc(-c3c[nH]c4ncc(F)cc34)ncc2F)C1` [Compound A266], the EC50 was 5 to 25 µM.
As to `NCCOCCOCCOCC(=O)N[C@@H]1CCC[C@H](Nc2nc(-c3c[nH]c4ncc(F)cc34)ncc2F)C1` [Compound A267], the EC50 fell in the range of 25 to 50 µM.
The same measure for `O=C(O)CCOCCOCCOCC(=O)N[C@H]1CCC[C@@H](Nc2nc(-c3c[nH]c4ncc(F)cc34)ncc2F)C1` [Compound A268]: below 5 µM.
`O=C(O)COCCOCCOCCC(=O)N[C@H]1CCC[C@@H](Nc2nc(-c3c[nH]c4ncc(F)cc34)ncc2F)C1` [Compound A269] had an EC50 of 5 to 25 µM.
`CCCCCCCCCCC(=O)N[C@@H]1CCC[C@H](Nc2nc(-c3c[nH]c4ncc(F)cc34)ncc2F)C1` [Compound A271] gave a concentration for a half-maximal effect (EC50) of 50 to 100 µM.
The compound `CCCCCOCCOCC(=O)N[C@@H]1CCC[C@H](Nc2nc(-c3c[nH]c4ncc(F)cc34)ncc2F)C1` [Compound A272] showed a 50% effective concentration (EC50) of 50 to 100 µM.
As for `CCOCCOc1cccc(CC(=O)N[C@@H]2CCC[C@H](Nc3nc(-c4c[nH]c5ncc(F)cc45)ncc3F)C2)c1` [Compound A273], the figure is 50 to 100 µM.
In the case of `CCOCCCCCOCC(=O)N[C@@H]1CCC[C@H](Nc2nc(-c3c[nH]c4ncc(F)cc34)ncc2F)C1` [Compound A274], the EC50 is above 100 µM.
For the compound `CCOCc1cccc(COCC(=O)N[C@@H]2CCC[C@H](Nc3nc(-c4c[nH]c5ncc(F)cc45)ncc3F)C2)c1` [Compound A275], the concentration for a half-maximal effect (EC50) was above 100 µM.
In turn, `CCCCCOCCOCC(=O)N[C@H]1CCC[C@@H](Nc2nc(-c3c[nH]c4ncc(F)cc34)ncc2F)C1` [Compound A277] showed an EC50 above 100 µM.
In the case of `CCOCCOc1cccc(CC(=O)N[C@H]2CCC[C@@H](Nc3nc(-c4c[nH]c5ncc(F)cc45)ncc3F)C2)c1` [Compound A279], the concentration giving a half-maximal response (EC50) is above 100 µM.
The compound `CCOCCOCCCCCOC(=O)N[C@@H]1CCC[C@H](Nc2nc(-c3c[nH]c4ncc(F)cc34)ncc2F)C1` [Compound A281] gave an EC50 above 100 µM.
For `COC(=O)N[C@H]1CCC[C@@H](Nc2nc(-c3c[nH]c4ncc(F)cc34)ncc2F)C1` [Compound A286], the half-maximal effective concentration (EC50) was in the range of 25 to 50 µM.
As for `CCOCCOCCCc1ccnc(C(=O)N[C@H]2CCC[C@@H](Nc3nc(-c4c[nH]c5ncc(F)cc45)ncc3F)C2)c1` [Compound A288], the figure is 5 to 25 µM.
Compound `CCOCCOCCOCCNC(=O)N(Cc1ccccc1)[C@@H]1CCC[C@H](Nc2nc(-c3c[nH]c4ncc(F)cc34)ncc2F)C1` [Compound B1] returned an EC50 above 100 µM.
The same measure for `CCOCCOCCOCCNC(=O)N(CCc1ccccc1)[C@@H]1CCC[C@H](Nc2nc(-c3c[nH]c4ncc(F)cc34)ncc2F)C1` [Compound B2]: 50 to 100 µM.
As to `CCOCCOCCOCCNC(=O)N(CCCc1ccccc1)[C@@H]1CCC[C@H](Nc2nc(-c3c[nH]c4ncc(F)cc34)ncc2F)C1` [Compound B3], the EC50 fell in the range of 50 to 100 µM.
